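GI50 is the concentration that inhibits growth by half. Definition used: TGI = concentration required for complete inhibition of growth.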
Legend:
Experiment in all cases: growth of human tumour cells (NCI), 384-well format
[1] = system: 786-0 renal
[2] = system: A498 renal
[3] = system: A549 NSCLC
[4] = system: ACHN renal
[5] = system: BT-549 breast
[6] = system: CAKI-1 renal
[7] = system: CCRF-CEM leukemia
[8] = system: DU-145 prostate
[9] = system: HCT-116 colon
[10] = system: HCT-15 colon
[11] = system: HL-60(TB) leukemia
[12] = system: HOP-62 NSCLC
[13] = system: HOP-92 NSCLC
[14] = system: HS 578T breast
[15] = system: HT29 colon
[16] = system: IGROV1 ovarian
[17] = system: K-562 leukemia
[18] = system: KM12 colon
[19] = system: LOX IMVI melanoma
[20] = system: M14 melanoma
[21] = system: MALME-3M melanoma
[22] = system: MCF7 breast
[23] = system: MDA-MB-231 breast
[24] = system: MDA-MB-435 melanoma
[25] = system: MDA-MB-468 breast
[26] = system: MOLT-4 leukemia
[27] = system: NCI-H226 lung
[28] = system: NCI-H23 lung
[29] = system: NCI-H522 lung
[30] = system: NCI/ADR-RES ovarian
[31] = system: OVCAR-3 ovarian
[32] = system: OVCAR-4 ovarian
[33] = system: OVCAR-8 ovarian
[34] = system: PC-3 prostate
[35] = system: RPMI-8226 leukemia
[36] = system: RXF 393 renal
[37] = system: SF-268 CNS
[38] = system: SF-295 CNS
[39] = system: SF-539 CNS
[40] = system: SK-MEL-2 melanoma
[41] = system: SK-MEL-28 melanoma
[42] = system: SK-OV-3 ovarian
[43] = system: SN12C renal
[44] = system: SNB-19 CNS
[45] = system: SNB-75 CNS
[46] = system: SW-620 colon
[47] = system: T-47D breast
[48] = system: TK-10 renal
[49] = system: U251 glioblastoma
[50] = system: UACC-257 melanoma
[51] = system: UACC-62 melanoma
[52] = system: UO-31 renal

O=NN(CCCl)C(=O)NC1CCCCC1
GI50 [1]: 20.2 µM | TGI [1]: 66.4 µM | GI50 [2]: 73.1 µM | GI50 [3]: 51.8 µM | GI50 [4]: 24.9 µM | TGI [4]: 71.4 µM | GI50 [5]: 21.4 µM | TGI [5]: 59.6 µM | GI50 [6]: 22.9 µM | TGI [6]: 75.4 µM | GI50 [7]: 19.5 µM | TGI [7]: 33.8 µM | GI50 [8]: 51.9 µM | GI50 [9]: 32.3 µM | GI50 [10]: 19.1 µM | TGI [10]: 41.3 µM | GI50 [11]: 12.2 µM | TGI [11]: 24.8 µM | GI50 [12]: 18.9 µM | TGI [12]: 56.5 µM | GI50 [13]: 28.9 µM | GI50 [14]: 13.1 µM | TGI [14]: 42.5 µM | GI50 [15]: 27.1 µM | TGI [15]: 78 µM | GI50 [16]: 78 µM | GI50 [17]: 20.1 µM | TGI [17]: 42.5 µM | GI50 [18]: 22.2 µM | TGI [18]: 86.8 µM | GI50 [19]: 13.2 µM | TGI [19]: 38 µM | GI50 [20]: 21.9 µM | TGI [20]: 65.2 µM | GI50 [21]: 18.6 µM | TGI [21]: 43.5 µM | GI50 [22]: 41.1 µM | GI50 [23]: 76.1 µM | GI50 [24]: 26 µM | TGI [24]: 81.2 µM | GI50 [25]: 13.2 µM | TGI [25]: 28.4 µM | GI50 [26]: 12.4 µM | TGI [26]: 25 µM | GI50 [27]: 29.9 µM | GI50 [28]: 30.3 µM | GI50 [29]: 15.4 µM | TGI [29]: 29 µM | GI50 [30]: 22.7 µM | TGI [30]: 54.4 µM | GI50 [31]: 27.4 µM | TGI [31]: 98 µM | GI50 [32]: 20.6 µM | TGI [32]: 50.3 µM | GI50 [33]: 21.4 µM | TGI [33]: 49.6 µM | GI50 [34]: 29 µM | GI50 [35]: 13.7 µM | TGI [35]: 26.9 µM | GI50 [36]: 17.3 µM | TGI [36]: 36 µM | GI50 [37]: 29.3 µM | GI50 [38]: 27.2 µM | GI50 [39]: 16.4 µM | TGI [39]: 35.3 µM | GI50 [40]: 32.5 µM | TGI [40]: 78.9 µM | GI50 [41]: 42.5 µM | GI50 [42]: 55.1 µM | GI50 [43]: 21.3 µM | TGI [43]: 61.2 µM | GI50 [44]: 34.9 µM | GI50 [45]: 34.6 µM | GI50 [46]: 20.9 µM | TGI [46]: 69.1 µM | GI50 [47]: 34.6 µM | GI50 [48]: 32.8 µM | GI50 [49]: 18.9 µM | GI50 [50]: 52.1 µM | GI50 [51]: 12.5 µM | TGI [51]: 41.6 µM | GI50 [52]: 24.3 µM | TGI [52]: 63.1 µM
